Laboratory results as given in patent US20160158200A1, “Combinations of Hepatitis C Virus Inhibitors” (priority 2013, published 2016).

System: HCV genotype-1a variant with glutamine 30 changed to glutamate in the NS5A protein
Assay type: cell-based
Conditions: test compound titrated with BMS-790052 fixed at 200 nM; genotype 1a Q30E replicon
Method in brief: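 Synergy was assessed by combining several fixed amounts of an NS5A-targeting compound with a titration of the second compound of interest.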

SMILES | Fold-Synergistic 1a (Q30E) [fold]
CC(C)(C)[C@H](NC(=O)C(=O)N(CCC#N)C1CC1)c1nc(-c2ccc(-c3ccc(-c4c[nH]c([C@@H](NC(=O)C(=O)N(CCC#N)C5CC5)C(C)(C)C)n4)cc3)cc2)c[nH]1 [Compound W-48] | >100
COC(C)(C)C(=O)N[C@H](c1nc(-c2ccc(-c3ccc(-c4c[nH]c([C@@H](NC(=O)C(C)(C)OC)C(C)C)n4)cc3F)cc2)c[nH]1)C(C)C.O=C(O)C(F)(F)F [Compound N-96] | >100
CC1(C)CCN(C(=O)C2(N3CCC(F)(F)CC3)COC2)C1c1nc(-c2ccc(-c3ccc(-c4c[nH]c(C5N(C(=O)C6(N7CCC(F)(F)CC7)COC6)CCC5(C)C)n4)cc3)cc2)c[nH]1 (centres unmarked) [Compound W-220] | >10
CN1CCC[C@H]1C(=O)N[C@H](c1nc(-c2ccc(-c3ccc(-c4c[nH]c([C@@H](NC(=O)[C@@H]5CCCN5C)C(C)(C)C)n4)cc3)cc2)c[nH]1)C(C)(C)C [Compound P-36] | >10
CC(C)(C)[C@H](NC(=O)C1CCC(F)(F)CC1)c1nc(-c2ccc(-c3ccc(-c4c[nH]c([C@@H](NC(=O)C5CCC(F)(F)CC5)C(C)(C)C)n4)cc3)cc2)c[nH]1 [Compound N-47] | >100
CC(C)(C)[C@H](NC(=O)Cc1noc2ccccc12)c1nc(-c2ccc(-c3ccc(-c4c[nH]c([C@@H](NC(=O)Cc5noc6ccccc56)C(C)(C)C)n4)cc3)cc2)c[nH]1 [Compound P-16] | >100
CC(C)[C@H](NC(=O)C(C)(C)F)c1ncc(-c2ccc(-c3ccc(-c4cnc([C@@H](NC(=O)C(C)(C)F)C(C)C)[nH]4)cc3)cc2)[nH]1 [Compound P-99] | >100
CC(C)(C)[C@H](NC(=O)C1C2CCOC21)c1nc(-c2ccc(-c3ccc(-c4cnc([C@@H](NC(=O)C5C6CCOC65)C(C)(C)C)[nH]4)cc3)cc2)c[nH]1 (single isomer, unassigned) [Compound B-164] | >100
Cc1cc(-c2ccc(-c3c[nH]c([C@@H](NC(=O)C(C)(C)C)C(C)(C)C)n3)cc2)ccc1-c1c[nH]c([C@@H](NC(=O)C(C)(C)C)C(C)(C)C)n1.O=C(O)C(F)(F)F [Compound N-86] | >100
CC1(C(NC(=O)C(C)(C)C(O)C2CC(F)(F)C2)c2nc(-c3ccc(-c4ccc(-c5c[nH]c(C(NC(=O)C(C)(C)C(O)C6CC(F)(F)C6)C6(C)CC6)n5)cc4)cc3)c[nH]2)CC1 (mixture of isomers) [Compound N-157] | >100
CC(C)[C@H](NC(=O)CC(C)(C)C)c1ncc(-c2ccc(-c3ccc(-c4cnc([C@@H](NC(=O)CC(C)(C)C)C(C)C)[nH]4)cc3)cc2)[nH]1 [Compound P-56] | >100
COc1ccc2cc([C@@H](C)C(=O)N[C@H](c3nc(-c4ccc(-c5ccc(-c6c[nH]c([C@@H](NC(=O)[C@H](C)c7ccc8cc(OC)ccc8c7)C(C)(C)C)n6)cc5)cc4)c[nH]3)C(C)(C)C)ccc2c1 [Compound S-254] | >100
CC(C)[C@H](NC(=O)C(=O)c1ccccc1OC(F)F)c1ncc(-c2ccc(-c3ccc(-c4cnc([C@@H](NC(=O)C(=O)c5ccccc5OC(F)F)C(C)C)[nH]4)cc3)cc2)[nH]1 [Compound P-122] | >100
CC(C)[C@H](NC(=O)C(C)(C)C)c1ncc(-c2ccc(-c3ccc(-c4cnc([C@@H](NC(=O)C(C)(C)C)C(C)C)n4C)cc3)cc2)n1C [Compound B-205] | <10
COC1(C(=O)NC(c2nc(-c3ccc(-c4ccc(-c5c[nH]c(C(NC(=O)C6(OC)CCOC6)C(C)C)n5)cc4)cc3)c[nH]2)C(C)C)CCOC1 (mixture of isomers) [Compound N-159] | >100
CC(C)[C@H](NC(=O)C1CC(=O)C1)c1nc(-c2ccc(-c3ccc(-c4c[nH]c([C@@H](NC(=O)C5CC(=O)C5)C(C)C)n4)cc3)cc2)c[nH]1 [Compound W-172] | >10
CC(C)COC(=O)N[C@H](c1ncc(-c2ccc(-c3ccc(-c4cnc([C@@H](NC(=O)OCC(C)C)C(C)C)[nH]4)cc3)cc2)[nH]1)C(C)C [Compound S-211] | >100
CC1CN(C(C)(C)C(=O)N2CCC(C)(C)C2c2nc(-c3ccc(-c4ccc(-c5c[nH]c(C6N(C(=O)C(C)(C)N7CC(C)OC(C)C7)CCC6(C)C)n5)cc4)cc3)c[nH]2)CC(C)O1 (centres unmarked) [Compound W-228] | <10
CC(C)(C)[C@H](NC(=O)CC1CCCCC1)c1nc(-c2ccc(-c3ccc(-c4c[nH]c([C@@H](NC(=O)CC5CCCCC5)C(C)(C)C)n4)cc3)cc2)c[nH]1 [Compound N-50] | >100

SMILES | Fold-Synergistic 1a (Q30E) [fold]
CC(C)(C)[C@H](NC(=O)C1(CO)CCCO1)c1nc(-c2ccc(-c3ccc(-c4c[nH]c([C@@H](NC(=O)C5(CO)CCCO5)C(C)(C)C)n4)cc3)cc2)c[nH]1 (single isomer, unassigned) [Compound Y-111] | >100
CCOC(=O)C(=O)N[C@H](c1nc(-c2ccc(-c3ccc(-c4c[nH]c([C@@H](NC(=O)C(=O)OCC)C(C)(C)C)n4)cc3)cc2)c[nH]1)C(C)(C)C [Compound W-30] | >100
CC(C)[C@H](NC(=O)c1ccccc1C#N)c1ncc(-c2ccc(-c3ccc(-c4cnc([C@@H](NC(=O)c5ccccc5C#N)C(C)C)[nH]4)cc3)cc2)[nH]1 [Compound S-94] | >100
CC(C)(C)[C@H](NC(=O)C1(NCC(F)(F)F)CC1)c1nc(-c2ccc(-c3ccc(-c4c[nH]c([C@@H](NC(=O)C5(NCC(F)(F)F)CC5)C(C)(C)C)n4)cc3)cc2)c[nH]1 [Compound L-96] | >100
CC(C)[C@H](NC(=O)c1ccc(F)c(F)c1)c1ncc(-c2ccc(-c3ccc(-c4cnc([C@@H](NC(=O)c5ccc(F)c(F)c5)C(C)C)[nH]4)cc3)cc2)[nH]1 [Compound S-16] | >100
CC1(C(=O)N[C@H](c2ncc(-c3ccc(-c4ccc(-c5cnc([C@@H](NC(=O)C6(C)CCC(F)(F)CC6)C6(C)CC6)[nH]5)cc4)cc3)[nH]2)C2(C)CC2)CCC(F)(F)CC1 [Compound P-133] | >100
CC(C)[C@H](NC(=O)c1ccc(Cl)s1)c1ncc(-c2ccc(-c3ccc(-c4cnc([C@@H](NC(=O)c5ccc(Cl)s5)C(C)C)[nH]4)cc3)cc2)[nH]1 [Compound P-91] | >100
CN(C(=O)OC(C)(C)C)C1(C(=O)N[C@H](c2nc(-c3ccc(-c4ccc(-c5c[nH]c([C@@H](NC(=O)C6(N(C)C(=O)OC(C)(C)C)CCC6)C(C)(C)C)n5)cc4)cc3)c[nH]2)C(C)(C)C)CCC1.O=C(O)C(F)(F)F.O=C(O)C(F)(F)F [Compound L-14] | >100
CC(C)(C)[C@H](NC(=O)[C@@H]1C[C@@H]2CC(F)(F)C[C@@H]2C1)c1nc(-c2ccc(-c3ccc(-c4c[nH]c([C@@H](NC(=O)[C@@H]5C[C@@H]6CC(F)(F)C[C@@H]6C5)C(C)(C)C)n4)cc3)cc2)c[nH]1 [Compound P-43] | >100
CC(C)[C@H](NC(=O)C(F)F)c1ncc(-c2ccc(-c3ccc(-c4cnc([C@@H](NC(=O)C(F)F)C(C)C)[nH]4)cc3)cc2)[nH]1 [Compound S-11] | >100
CC(C)(C)OC(=O)N1CC(F)(F)CC1(C)C(=O)N[C@H](c1nc(-c2ccc(-c3ccc(-c4c[nH]c([C@@H](NC(=O)C5(C)CC(F)(F)CN5C(=O)OC(C)(C)C)C(C)(C)C)n4)cc3)cc2)c[nH]1)C(C)(C)C (single isomer, unassigned) [Compound W-77] | >100
CC(C)[C@H](NC(=O)c1cc2ccccc2o1)c1ncc(-c2ccc(-c3ccc(-c4cnc([C@@H](NC(=O)c5cc6ccccc6o5)C(C)C)[nH]4)cc3)cc2)[nH]1 [Compound S-87] | >100
CC(C)(C)[C@H](NC(=O)C(O)(CF)CF)c1nc(-c2ccc(-c3ccc(-c4c[nH]c([C@@H](NC(=O)C(O)(CF)CF)C(C)(C)C)n4)cc3)cc2)c[nH]1 [Compound N-140] | >100
CC(C)(C)[C@H](NC(=O)CC1CCC(F)(F)CC1)c1nc(-c2ccc(-c3ccc(-c4c[nH]c([C@@H](NC(=O)CC5CCC(F)(F)CC5)C(C)(C)C)n4)cc3)cc2)c[nH]1 [Compound N-112] | >100
CC1(C)CCCC(C)(C(=O)NC(c2nc(-c3ccc(-c4ccc(-c5c[nH]c(C(NC(=O)C6(C)CCCC(C)(C)O6)C(C)(C)C)n5)cc4)cc3)c[nH]2)C(C)(C)C)O1 (mixture of isomers) [Compound W-163] | >100
CC(C)[C@H](NC(=O)[C@H](NC(=O)OCC(C)(C)C)C(C)C)c1ncc(-c2ccc(-c3ccc(-c4cnc([C@@H](NC(=O)[C@H](NC(=O)OCC(C)(C)C)C(C)C)C(C)C)[nH]4)cc3)cc2)[nH]1 [Compound S-253] | >100
COC1(C(=O)N[C@H](c2ncc(-c3ccc(-c4ccc(-c5cnc([C@@H](NC(=O)C6(OC)CCC(F)(F)CC6)C6(C)CC6)[nH]5)cc4)cc3)[nH]2)C2(C)CC2)CCC(F)(F)CC1 [Compound P-132] | >100
CC(C)[C@H](NC(=O)COc1ccccc1)c1ncc(-c2ccc(-c3ccc(-c4cnc([C@@H](NC(=O)COc5ccccc5)C(C)C)[nH]4)cc3)cc2)[nH]1 [Compound S-35] | >100
Cc1oncc1C(=O)N[C@H](c1ncc(-c2ccc(-c3ccc(-c4cnc([C@@H](NC(=O)c5cnoc5C)C(C)C)[nH]4)cc3)cc2)[nH]1)C(C)C [Compound S-104] | >100
